Results as given in patent publication US7754718B2 (priority 2004, dated 2010).
Like-named read-outs stand apart in the source and are kept apart here.

Key:
[1] = tested on: EBV; assay: In vitro antiviral assay for EBV; type: cell-based, Epstein-Barr Virus; conditions: human gammaherpesvirus 4, read-out: Antiviral Activities (EC50, μM) EBV
How it was run: (§1)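 Performed according to previously reported procedures for each virus; no further conditions are given for the HSV-2, CMV, HIV or EBV assays.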

[2] = tested on: wt (ayw) HBV; assay: HBV DNA inhibition in HepG2.2.15 cells, Southern blot hybridization; type: cell-based; conditions: Hepatitis B virus, HepG2.2.15, 144 h, read-out: EC50 (μM) wt (ayw), HepG2.2.15 cells, 6-day treatment, HBV DNA by Southern blot
Protocol: (§2) Southern blot hybridization was used to measure the effects of compounds on HBV DNA. Total DNA from cells was extracted using Dneasy Tissue kit (Qiagen Inc. Valencia, Calif.) and separated on a 0.8% agarose gel. Separated DNA was transferred to a Hybond-N+membrane (Amersham Pharmacia Biotech Inc. Piscataway, N.J.). Inhibition of viral DNA replication was assessed by comparison of the replicative HBV DNA from drug-treated versus untreated cultures using hybridization of the membrane with a [α-^32P] dCTP labeled whole HBV DNA probe followed by autoradiography. Quantitative densitometry was performed on a Molecular Dynamics Densitometer (Amersham Pharmacia Biotech Inc. Piscataway, N.J.) using ImageQuaNT image analysis software. The integrated HBV genome was used as the internal control to normalize the amount of DNA loaded. Northern blot hybridization was used to measure the effects of the compounds on HBV RNA. Total intracellular RNA was extracted from cells using Rneasy kit (Qiagen Inc. Valencia, Calif.). RNA was separated in a 1.2% formaldehyde agarose gel and transferred to a Hybond-N+ membrane (Amersham Pharmacia Biotech Inc. Piscataway, N.J.). The membrane was hybridized with the same probe mentioned above at 65° C. followed by autoradiography. GAPDH RNA level was used as an internal control to normalize the amount of RNA loaded. The decrease of HBV core protein expression was assessed by western blot. A cellular crude extract of […] cells was separated on a 12% SDS-PAGE gel and transferred onto a nitrocellulose membrane (Bio-rad Laboratories, Hercules, Calif.). Anti-HBV core antibody (DAKO Corp. Carpinteria, Calif.) and anti rabbit IgG secondary antibody (Sigma. St. Louis, Mo.) were added. Actin protein level was used as the internal control.
Hep.G2.2.15 is a hepatoblastoma cell line stably transfected with a HBV genome (ayw strain) (Sells et al., 1987, Proc Natl Acad Sci USA. 84 (4):1005-1009). […]
The effect of helioxanthin and 22 on HBV DNA in HepG2.2.15 cells, which is stably transfected with the HBV genome, was assessed. […]

[3] = tested on: HBV 3.5 kb, 2.4/2.1 kb transcripts; assay: HBV RNA in HepG2.2.15 cells, Northern blot hybridization; type: cell-based, Hepatitis B virus; conditions: for EC50: Hepatitis B virus, 144 h, read-out: EC50 for the 3.5 kb transcript
Protocol: as §2
Since helioxanthin and its derivatives are a unique class of chemical with anti-HBV activity, the mechanism of HBV inhibition was examined by first assessing their impact on HBV mRNA. The HepG2.2.15 cells treated with these two drugs for 6 days, then a Northern blot analysis on the total cellular RNA was performed with a HBV specific [α-^32P] dCTP labeled probe. […] Lamivudine had no effect on HBV RNA level.

[4] = tested on: HBV core protein; assay: HBV core protein expression in HepG2.2.15 cells, Western blot; type: cell-based, Hepatitis B virus; conditions: 6 days
Protocol: as §2
Since 3.5 kb HBV transcript was decreased after drug treatment, it was anticipated that this class of compounds would also affect viral protein expression. HepG2.2.15 cells were treated with helioxanthin and 22 for 6 days. […]

[5] = tested on: HSV-1; assay: In vitro antiviral assay for HSV-1; type: cell-based, Herpes Simplex Virus 1; conditions: Human alphaherpesvirus 1, read-out: Antiviral Activities (EC50, μM) HSV-1
How it was run: as §1

[6] = tested on: HSV-2; assay: In vitro antiviral assay for HSV-2; type: cell-based, Herpes Simplex Virus 2; conditions: Human alphaherpesvirus 2, read-out: Antiviral Activities (EC50, μM) HSV-2
How it was run: as §1

[7] = tested on: HIV; assay: In vitro antiviral assay for HIV; type: cell-based, human immunodeficiency virus; conditions: Human immunodeficiency virus 1, read-out: Antiviral Activities (EC50, μM) HIV, in vitro; (T) after a value means toxic
How it was run: as §1

[8] = HepG2.2.15 cells, 6 days, Northern blot

Row | SMILES | EC50 [1] | EC50 [2] | effect on HBV 3.5 kb, 2.4/2.1 kb transcripts (HBV RNA level) [3] | effect on HBV core protein expression [4] | EC50 [5] | EC50 [6] | EC50 [7] | effect on HBV 3.5 kb, 2.4/2.1 kb transcripts (HBV RNA level) [3, 8] | EC50 [3, 8] | effect on HBV 3.5 kb, 2.4/2.1 kb transcripts (HBV RNA level) ([3]; HepG2.2.15 cells, 6 days, Northern blot, listed as helioxanthin) | effect on HBV core protein expression ([4]; listed as helioxanthin)
1 | Nc1ccn([C@@H]2CS[C@H](CO)O2)c(=O)n1 [Compound 3TC, (−)-(2R,5S)-1-[2-(hydroxymethyl)oxathiolan-5-yl]cytosine] | 0.4 µM | 0.05 ± 0.03 µM | no effect | no effect | – | – | – | – | – | – | –
2 | COc1ccc(-c2c3c(cc4ccc5c(c24)OCO5)C(=O)NC3)cc1OC [Compound 22, 10-(3,4-Dimethoxy-phenyl)-8,9-dihydro-1,3-dioxa-8-aza-dicyclopenta[a,g]naphthalen-7-one] | > 20 µM | ~0.08 µM | – | decreased in a dose-dependent manner | 0.6 µM | 0.5 µM | > 16 µM | decreased 3.5 kb, 2.4/2.1 kb HBV transcripts in a dose-dependent manner | 1 µM | – | –
3 | O=C1OCc2c1cc1ccc3c(c1c2-c1ccc2c(c1)OCO2)OCO3 [Compound 2, 10-Benzo[1,3]dioxol-5-yl-9H-furo[3′,4′:6,7]naphtho[1,2-d][1,3]dioxol-7-one, reference compound] | > 20 µM | ~1 µM | – | – | 2 µM | 35 µM | > 2.5 µM | – | 0.09 µM | decreased 3.5 kb, 2.4/2.1 kb HBV transcripts in a dose-dependent manner | decreased in a dose-dependent manner
